Structures are written as SMILES.

Our source for the IC50 and PI3Kγ/PI3Kβ ratio values is patent publication US10092563B2, “Phosphatidylinositol 3-kinase inhibitors” (Gilead Sciences, Inc., priority 2014, dated 2018).

Common to all, as to test: TR-FRET enzymatic assay of PI3K isoforms
Common to all, as to type: biochemical
For orientation: Time-resolved FRET reads energy transfer from a long-lived donor to a nearby acceptor.

One assay addresses PI3Kγ (Homo sapiens (Human), UniProt P48736). As to conditions: 2× Km ATP, 30 minutes at 25° C. Here is the method: (§1) The compounds of formula (I) were characterized for their enzymatic activity against the PI3K isoforms. The activities were measured using a time-resolved fluorescence resonance energy transfer (TR-FRET) assay.
The target in another assay is PI3Kβ (Homo sapiens (Human), UniProt P42338). As to conditions: for PI3Kγ/PI3Kβ ratio: ratio of IC50 PI3Kγ to IC50 PI3Kβ (fold). Here is the method: as §1
Chain of PI3Kβ (P42338 whole entry): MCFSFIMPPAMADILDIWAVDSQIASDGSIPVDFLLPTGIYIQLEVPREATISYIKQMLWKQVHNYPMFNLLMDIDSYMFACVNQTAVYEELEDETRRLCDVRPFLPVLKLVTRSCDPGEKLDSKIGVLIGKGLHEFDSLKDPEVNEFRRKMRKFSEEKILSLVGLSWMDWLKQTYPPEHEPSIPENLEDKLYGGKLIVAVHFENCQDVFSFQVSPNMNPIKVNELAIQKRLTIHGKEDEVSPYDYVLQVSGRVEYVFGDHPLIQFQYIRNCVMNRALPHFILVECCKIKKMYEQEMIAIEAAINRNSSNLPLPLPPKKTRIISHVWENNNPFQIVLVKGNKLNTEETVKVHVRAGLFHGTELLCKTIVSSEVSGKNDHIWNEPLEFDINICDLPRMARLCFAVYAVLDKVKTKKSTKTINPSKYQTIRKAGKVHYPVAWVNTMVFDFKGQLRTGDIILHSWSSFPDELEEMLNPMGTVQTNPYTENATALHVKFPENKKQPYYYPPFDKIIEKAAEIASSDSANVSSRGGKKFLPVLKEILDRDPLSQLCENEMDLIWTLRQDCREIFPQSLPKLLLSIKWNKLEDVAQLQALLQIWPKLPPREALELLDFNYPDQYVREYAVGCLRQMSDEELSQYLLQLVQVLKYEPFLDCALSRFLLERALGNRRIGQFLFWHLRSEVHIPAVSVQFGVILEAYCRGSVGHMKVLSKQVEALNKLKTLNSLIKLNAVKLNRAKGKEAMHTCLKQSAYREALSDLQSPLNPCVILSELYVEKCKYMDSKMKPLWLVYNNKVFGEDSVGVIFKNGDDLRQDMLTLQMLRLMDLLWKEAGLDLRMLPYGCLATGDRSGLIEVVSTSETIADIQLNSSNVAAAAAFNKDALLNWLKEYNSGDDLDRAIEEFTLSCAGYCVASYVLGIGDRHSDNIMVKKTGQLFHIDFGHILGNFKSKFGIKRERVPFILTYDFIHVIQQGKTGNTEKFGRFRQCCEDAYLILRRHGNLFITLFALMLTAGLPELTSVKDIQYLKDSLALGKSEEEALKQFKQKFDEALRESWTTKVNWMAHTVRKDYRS
Chain of PI3Kβ (P27986 whole entry partner): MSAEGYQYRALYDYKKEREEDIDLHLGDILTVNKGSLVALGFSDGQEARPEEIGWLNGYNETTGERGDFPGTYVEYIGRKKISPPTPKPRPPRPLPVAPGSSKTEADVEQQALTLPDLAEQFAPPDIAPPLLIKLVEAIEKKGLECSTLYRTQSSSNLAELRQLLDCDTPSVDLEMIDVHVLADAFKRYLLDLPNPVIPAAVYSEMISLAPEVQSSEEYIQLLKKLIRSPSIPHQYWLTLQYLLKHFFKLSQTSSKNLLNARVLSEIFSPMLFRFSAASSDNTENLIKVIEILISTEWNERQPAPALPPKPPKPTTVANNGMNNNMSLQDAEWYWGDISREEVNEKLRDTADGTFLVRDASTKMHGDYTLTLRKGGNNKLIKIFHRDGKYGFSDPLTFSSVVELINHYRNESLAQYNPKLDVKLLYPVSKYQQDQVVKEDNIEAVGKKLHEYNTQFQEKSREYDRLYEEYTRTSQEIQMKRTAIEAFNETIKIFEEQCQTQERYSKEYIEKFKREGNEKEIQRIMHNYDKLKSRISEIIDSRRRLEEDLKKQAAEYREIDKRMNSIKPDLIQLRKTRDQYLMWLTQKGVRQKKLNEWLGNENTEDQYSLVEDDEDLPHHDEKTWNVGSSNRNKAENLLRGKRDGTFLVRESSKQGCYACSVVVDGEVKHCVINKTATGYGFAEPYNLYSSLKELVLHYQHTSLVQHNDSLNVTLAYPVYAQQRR
The target in another assay is PI3Kδ (Homo sapiens (Human), UniProt O00329). As to conditions: 2× Km ATP, 30 minutes at 25° C. The procedure: as §1
Chain of PI3Kδ (O00329 whole entry): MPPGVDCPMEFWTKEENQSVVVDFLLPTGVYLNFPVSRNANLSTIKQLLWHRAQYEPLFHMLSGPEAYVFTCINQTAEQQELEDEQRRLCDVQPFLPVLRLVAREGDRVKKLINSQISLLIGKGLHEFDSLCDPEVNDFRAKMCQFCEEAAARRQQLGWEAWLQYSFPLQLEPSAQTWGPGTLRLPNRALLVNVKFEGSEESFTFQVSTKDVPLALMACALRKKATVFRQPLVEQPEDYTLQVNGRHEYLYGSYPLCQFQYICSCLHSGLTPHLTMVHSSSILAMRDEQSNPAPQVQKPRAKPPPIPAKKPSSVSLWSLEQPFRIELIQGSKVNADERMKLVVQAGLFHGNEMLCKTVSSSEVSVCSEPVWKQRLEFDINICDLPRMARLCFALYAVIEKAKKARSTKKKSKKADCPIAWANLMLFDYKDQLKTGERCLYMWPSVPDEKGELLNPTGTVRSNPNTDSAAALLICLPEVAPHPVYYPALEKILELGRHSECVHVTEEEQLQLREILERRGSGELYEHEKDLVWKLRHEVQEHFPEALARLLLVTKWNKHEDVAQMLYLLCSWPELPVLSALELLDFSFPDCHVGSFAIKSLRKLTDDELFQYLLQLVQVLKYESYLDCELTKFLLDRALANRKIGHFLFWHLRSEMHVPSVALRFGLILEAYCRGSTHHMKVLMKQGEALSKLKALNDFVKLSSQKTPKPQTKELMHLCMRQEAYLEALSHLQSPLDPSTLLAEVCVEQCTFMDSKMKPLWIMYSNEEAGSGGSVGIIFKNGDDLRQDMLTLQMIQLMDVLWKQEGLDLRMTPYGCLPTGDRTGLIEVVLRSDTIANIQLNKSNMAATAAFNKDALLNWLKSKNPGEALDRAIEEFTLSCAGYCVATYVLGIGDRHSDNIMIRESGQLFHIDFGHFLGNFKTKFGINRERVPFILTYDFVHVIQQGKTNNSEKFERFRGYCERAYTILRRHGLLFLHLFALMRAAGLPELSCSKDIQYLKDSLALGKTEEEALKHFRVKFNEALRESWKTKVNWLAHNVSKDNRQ
Chain of PI3Kδ (P27986 whole entry partner): as the sequence (P27986 whole entry partner) above

Chain of PI3Kγ (P48736 whole entry, canonical isoform): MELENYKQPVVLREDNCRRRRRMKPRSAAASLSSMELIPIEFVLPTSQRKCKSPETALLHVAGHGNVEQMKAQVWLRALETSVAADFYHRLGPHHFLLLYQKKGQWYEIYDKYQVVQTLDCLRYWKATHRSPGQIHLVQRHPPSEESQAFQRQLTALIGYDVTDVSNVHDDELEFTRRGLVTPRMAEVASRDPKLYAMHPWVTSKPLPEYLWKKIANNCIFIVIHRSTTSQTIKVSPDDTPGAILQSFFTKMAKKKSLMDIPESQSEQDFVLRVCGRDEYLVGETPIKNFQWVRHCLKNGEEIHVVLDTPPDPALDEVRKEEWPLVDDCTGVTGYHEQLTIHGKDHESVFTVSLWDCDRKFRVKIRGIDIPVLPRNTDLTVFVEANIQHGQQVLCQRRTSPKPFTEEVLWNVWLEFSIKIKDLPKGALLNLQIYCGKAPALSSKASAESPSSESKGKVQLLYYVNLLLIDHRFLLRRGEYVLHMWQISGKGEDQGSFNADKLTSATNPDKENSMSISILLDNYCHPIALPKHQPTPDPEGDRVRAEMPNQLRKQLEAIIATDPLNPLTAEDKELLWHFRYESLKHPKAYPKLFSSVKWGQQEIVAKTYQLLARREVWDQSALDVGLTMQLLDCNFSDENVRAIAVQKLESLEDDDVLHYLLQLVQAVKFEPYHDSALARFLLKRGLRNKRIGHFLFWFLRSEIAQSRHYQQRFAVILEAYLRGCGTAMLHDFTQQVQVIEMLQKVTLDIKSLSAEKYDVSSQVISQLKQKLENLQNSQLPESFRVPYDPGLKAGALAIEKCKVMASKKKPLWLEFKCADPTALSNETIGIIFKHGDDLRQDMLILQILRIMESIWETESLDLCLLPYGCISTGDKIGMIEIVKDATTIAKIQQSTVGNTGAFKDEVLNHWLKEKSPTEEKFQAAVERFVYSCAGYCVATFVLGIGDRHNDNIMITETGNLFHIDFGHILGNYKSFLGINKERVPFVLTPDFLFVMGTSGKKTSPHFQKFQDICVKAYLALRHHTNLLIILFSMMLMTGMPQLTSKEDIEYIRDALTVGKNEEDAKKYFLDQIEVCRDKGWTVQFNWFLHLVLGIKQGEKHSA
Chain of PI3Kγ (Q8WYR1 whole entry partner, canonical isoform): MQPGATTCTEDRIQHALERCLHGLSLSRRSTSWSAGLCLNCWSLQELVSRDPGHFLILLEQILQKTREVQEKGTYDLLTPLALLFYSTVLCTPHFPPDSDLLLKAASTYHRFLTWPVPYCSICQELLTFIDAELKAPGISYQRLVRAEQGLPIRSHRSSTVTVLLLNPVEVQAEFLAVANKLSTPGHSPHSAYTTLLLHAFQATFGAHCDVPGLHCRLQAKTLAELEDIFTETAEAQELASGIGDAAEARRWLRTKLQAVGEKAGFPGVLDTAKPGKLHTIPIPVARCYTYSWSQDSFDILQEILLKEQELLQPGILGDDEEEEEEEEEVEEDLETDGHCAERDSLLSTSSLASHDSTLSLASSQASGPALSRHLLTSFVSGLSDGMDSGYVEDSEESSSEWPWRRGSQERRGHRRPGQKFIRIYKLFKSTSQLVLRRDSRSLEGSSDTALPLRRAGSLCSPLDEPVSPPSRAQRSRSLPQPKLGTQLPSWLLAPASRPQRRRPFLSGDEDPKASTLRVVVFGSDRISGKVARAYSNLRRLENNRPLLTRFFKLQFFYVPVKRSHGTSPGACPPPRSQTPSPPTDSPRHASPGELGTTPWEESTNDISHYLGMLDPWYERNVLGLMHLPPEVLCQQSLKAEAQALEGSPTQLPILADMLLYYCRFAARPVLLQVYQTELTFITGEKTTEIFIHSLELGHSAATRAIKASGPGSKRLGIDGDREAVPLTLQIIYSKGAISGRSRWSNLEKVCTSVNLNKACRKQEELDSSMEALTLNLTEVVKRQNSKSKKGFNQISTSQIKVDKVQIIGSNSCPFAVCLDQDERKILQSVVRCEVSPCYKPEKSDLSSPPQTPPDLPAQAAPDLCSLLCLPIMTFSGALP

As usually defined, the IC50 is the point on the concentration scale where inhibition reaches its midpoint. As to `Cc1nc(N)nc(N[C@@H](C)c2nc3c(F)ccc(Cl)c3c(=O)n2C2[C@H]3CNC[C@@H]23)c1C#N` (stereo partly drawn) [Compound 16, 4-(((1S)-1-(3-((1R,5S)-3-azabicyclo[3.1.0]hexan-6-yl)-5-chloro-8-fluoro-4-oxo-3,4-dihydroquinazolin-2-yl)ethyl)amino)-2-amino-6-methylpyrimidine-5-carbonitrile], the values for the IC50 at PI3Kγ, at PI3Kβ and on PI3Kδ were 2600 nM, 2 nM and 6 nM, respectively.
`C[C@H](Nc1nc(N)nc(N)c1C#N)c1nc2c(F)ccc(Cl)c2c(=O)n1C1[C@H]2CNC[C@@H]12` (stereo partly drawn) [Compound 17, 4-(((1S)-1-(3-((1R,5S)-3-azabicyclo[3.1.0]hexan-6-yl)-5-chloro-8-fluoro-4-oxo-3,4-dihydroquinazolin-2-yl)ethyl)amino)-2,6-diaminopyrimidine-5-carbonitrile]: the half-maximal inhibitory concentration (IC50) against PI3Kγ came out at 2800 nM; at PI3Kβ, 3 nM; against PI3Kδ it was 4 nM.
`C[C@H](Nc1nc(N)nc(N)c1C#N)c1nc2cccc(Cl)c2c(=O)n1[C@@H]1CCCNC1` [Compound 27, 2,4-diamino-6-(((S)-1-(5-chloro-4-oxo-3-((R)-piperidin-3-yl)-3,4-dihydroquinazolin-2-yl)ethyl)amino)pyrimidine-5-carbonitrile]: the concentration for half-maximal inhibition (IC50) on PI3Kγ was more than 10000 nM; at PI3Kδ it was 830 nM.
As for `C[C@H](Nc1nc(N)nc(N)c1C#N)c1nc2cccc(Cl)c2c(=O)n1-c1ccccc1` [Compound X, (S)-2,4-diamino-6-((1-(5-chloro-4-oxo-3-phenyl-3,4-dihydroquinazolin-2-yl)ethyl)amino)pyrimidine-5-carbonitrile, reference compound], the PI3Kγ/PI3Kβ ratio on PI3Kβ is 0.6; on PI3Kβ (listed as (S)-2,4-diamino-6-(1-(5-chloro-4-oxo-3-phenyl-3,4-dihydroquinazolin-2-yl)ethyl)), “less than 1”.
